Experiments:
[1] = test system: murine thymoma ITT(1) 75NS E3 (Ly-2^+); assay: 30 minute inhibition assay ([^3 H]-thymidine incorporation), E3; assay type: cell-based; conditions: 0.5 h
Text: (§1) The cell lines examined in this study included the (Ly-2^+) murine thymoma ITT(1) 75NS E3 variant (E3) (Smyth et al, J. Natl Cancer Inst. 1986 76 503-510), the (Ly-2^-, TFR^-) lymphoma EL4 (Horowitz et al, Science 1968 160 533-535), the (TFR^+) human cell line CEM (Foley et al Cancer 1965 18 522-529) and the (250-30.6^+) human cell line COLO 205. Cells were maintained in vitro in Dulbecco's Modified Eagle's medium (DME) or RPMI 1640 medium (Flow Laboratories, Sydney, Australia), supplemented with 10% heat inactivated newborn calf serum (Flow), 2 mM glutamine (Commonwealth Serum Laboratories, Sydney, Australia); 100 ug/ml streptomycin (Glaxo, Melbourne, Australia) and 100 I.U./ml penicillin (Commonwealth Serum Laboratories). The E3 tumour was maintained in vivo by serial passage into (C57BL/6×BALB/c)F1 mice (CBF1 mice). Cells from the ascites fluid were washed and centrifuged (400 g×5 min) twice in phosphate buffered saline (PBS), pH7.3, resuspended in PBS and injected subcutaneously (s.c.) into the abdominal wall of mice; these developed into palpable tumours prior to treatment. Mice were subjected to a series of intraveneous (i.v.) or intratumour (i.t.) treatments and the subsequent size of tumours was measured daily with a caliper square, measuring along the perpendicular axes of the tumours. Data was recorded as mean tumour size (product of two diameters ± standard error).
(§2) (b) 30 minute inhibition assay: 200 ul of cells (2-5×10^6 /ml) were collected in sterile Eppendorf tubes, resuspended in sterile drug or conjugate and mixed for 30 min at 37° C. Cells were then centrifuged (400 g×5 min), resuspended in growth medium and 100 ul aliquots were seeded into a microtitre plate using duplicate wells for each sample before an incubation period of 16-24 hours. After the incubation period in both these assays, 50 ul of growth medium containing 1 uCi of [^3 H]-thymidine (specific activity=5 Ci/mmol; Amersham) was added and the plates incubated for 2-4 hours. Cells were then harvested and dried, and individual samples were separated and counted on a beta scintillation counter.

[2] = test system: tumour cell lines tested; assay: 24 hour assay, tumour cell lines tested (Example 2); assay type: cell-based
Experimental: as §2, with “(b) 30 minute inhibition assay: 200 ul of cells (2-5×10^6 /ml) were collected in sterile Eppendorf tubes, resuspended in sterile drug or conjugate and mixed for 30 min at 37° C.” left out

[3] = test system: solid E3 tumour; assay: Intratumour treatment of E3 tumours in CBF1 mice; assay type: in vivo; conditions: days 5 and 6, total Ida=30 ug
Experimental: The E3 tumour was maintained in vivo by serial passage into (C57BL/6×BALB/c)F1 mice (CBF1 mice). Cells from the ascites fluid were washed and centrifuged (400 g×5 min) twice in phosphate buffered saline (PBS), pH7.3, resuspended in PBS and injected subcutaneously (s.c.) into the abdominal wall of mice; these developed into palpable tumours prior to treatment. Mice were subjected to a series of intraveneous (i.v.) or intratumour (i.t.) treatments and the subsequent size of tumours was measured daily with a caliper square, measuring along the perpendicular axes of the tumours. Data was recorded as mean tumour size (product of two diameters ± standard error).

[4] = test system: (L3T4^+) lymphoma EL4; assay: 24 hour inhibition assay ([^3 H]-thymidine incorporation), EL4; assay type: cell-based; conditions: Table 3; EL4, 24 hr; read-out: Mean I.D.50 values (Ida (M))
Experimental: (a) 24 hour inhibition assay: 100 ul of cells (2-5×10^6 /ml) were added to a flat-bottomed microtitre plate and incubated for 1 hour at 37° C. Free Idarubicin (Ida) (dissolved in PBS) and Ida-MoAb conjugates were filtered aseptically and dilutions were performed in sterile PBS; 50 ul of free Ida or conjugate were added to the cells using duplicate wells for each sample; control wells received 50 ul of PBS and the cells were cultured at 37° C., 7% CO2 for 24 hours.
(§3) (b) 30 minute inhibition assay: 200 ul of cells (2-5×10^6 /ml) were collected in sterile Eppendorf tubes, resuspended in sterile drug or conjugate and mixed for 30 min at 37° C. […] Cells were then harvested and dried, and individual samples were separated and counted on a beta scintillation counter. Incorporation of [^3 H]-thymidine was expressed as a percentage inhibition in incorporation of controls.
(§4) The cell lines examined in this study included the (Ly-2^+) murine thymoma ITT(1)75NS E3 variant (E3), the (L3T4^+) lymphoma EL4 (Horowitz et al, Science 1968 160 533-535), the human colon carcinoma Colo 205 (Semple et al, Cancer Res. 1978 38 1345-1355) and the (Ly-2^-, L3T4^-) human T cell leukemia CEM (Foley et al, Cancer 1965 18 522-529). […] Mice were then subjected to a series of i.v. treatments and the size of the tumours was measured daily with a caliper square, measuring along the perpendicular axes of the tumours. […]

[5] = test system: human cell line CEM; assay: cells; assay type: cell-based; conditions: 0.5 h, Table 3, 30 min, read-out: Mean I.D.50 values (Ida (M))
Experimental: (§5) The cell lines examined in this study included the (Ly-2^+) murine thymoma ITT(1) 75NS E3 variant (E3) (Smyth et al, J. Natl Cancer Inst. 1986 76 503-510), the (Ly-2^-, TFR^-) lymphoma EL4 (Horowitz et al, Science 1968 160 533-535), the (TFR^+) human cell line CEM (Foley et al Cancer 1965 18 522-529) and the (250-30.6^+) human cell line COLO 205. […] Mice were subjected to a series of intraveneous (i.v.) or intratumour (i.t.) treatments and the subsequent size of tumours was measured daily with a caliper square, measuring along the perpendicular axes of the tumours. Data was recorded as mean tumour size (product of two diameters ± standard error).
as §3, with “counter.” for “counter. Incorporation of [^3 H]-thymidine was expressed as a percentage inhibition in incorporation of controls.”
(§6) Data was recorded as mean tumour size (product of two diameters ± standard error).

[6] = test system: E3 thymoma; assay: i.v. treatment of s.c. E3 thymoma in CBF1 mice (2.0×10^6 cells); assay type: in vivo; conditions: 20 ug Ida, days 4 and 5
Text: as §1, with “error). […]” for “error).”

[7] = test system: CBA mice (organs); assay: Histopathology after single i.v. dose; assay type: in vivo; conditions: 1.0 mg/kg i.v.
Experimental: (§7) Groups of 10-20 CBA mice were given a single i.v. injection of various doses of Ida or Ida-anti-Ly-2.1 and the survival of mice was recorded against the dose of drug delivered in mg/kg. The organs of these mice were removed and weighed prior to formalin fixation and staining by haematoxylin and eosin.

[8] = test system: COLO 205; assay: 24 hour inhibition assay ([^3 H]-thymidine incorporation), COLO 205; assay type: cell-based; conditions: Homo sapiens
Experimental: as §5, with “error). […]” for “error).”
as §3, with “controls. […]” for “controls.”

[9] = test system: COLO 205; assay: 30 minute inhibition assay ([^3 H]-thymidine incorporation), COLO 205; assay type: cell-based; conditions: Homo sapiens, 0.5 h
Experimental: as §5
as §3, with “counter.” for “counter. Incorporation of [^3 H]-thymidine was expressed as a percentage inhibition in incorporation of controls.”
as §6

[10] = test system: human cell line CEM; assay: 24 hour inhibition assay ([^3 H]-thymidine incorporation), CEM; assay type: cell-based
Text: as §1, with “The E3 tumour was maintained in vivo by serial passage into (C57BL/6×BALB/c)F1 mice (CBF1 mice). Cells from the ascites fluid were washed and centrifuged (400 g×5 min) twice in phosphate buffered saline (PBS), pH7.3, resuspended in PBS and injected subcutaneously (s.c.) into the abdominal wall of mice; these developed into palpable tumours prior to treatment.” left out
as §3, with “counter.” for “counter. Incorporation of [^3 H]-thymidine was expressed as a percentage inhibition in incorporation of controls.”

[11] = test system: murine thymoma ITT(1) 75NS E3 (Ly-2^+); assay: 24 hour inhibition assay ([^3 H]-thymidine incorporation), E3; assay type: cell-based; conditions: Mus musculus
Text: as §1, with “The E3 tumour was maintained in vivo by serial passage into (C57BL/6×BALB/c)F1 mice (CBF1 mice). Cells from the ascites fluid were washed and centrifuged (400 g×5 min) twice in phosphate buffered saline (PBS), pH7.3, resuspended in PBS and injected subcutaneously (s.c.) into the abdominal wall of mice; these developed into palpable tumours prior to treatment.” left out
as §3, with “counter.” for “counter. Incorporation of [^3 H]-thymidine was expressed as a percentage inhibition in incorporation of controls.”

[12] = test system: CBA mice; assay: Acute toxicity, single i.v. injection in CBA mice; assay type: in vivo
Experimental: as §7
(§8) For acute toxicity experiments groups of 10 CBA (Ly2.1^+) mice were given a single injection of various doses of either Ida, Ida-anti-Ly-2.1 or Ida-anti-TFR. […] Ida-MoAb conjugates were not tested to an LD50 dose.

[13] = Acute toxicity, single i.v. injection in CBA mice; assay type: in vivo; conditions: mouse, in vivo, iv; Table 2; Ida (mg/kg)
Experimental: as §7, §8

[14] = test system: COLO 205 xenografts; assay: i.v. treatment of COLO 205 xenografts in nude mice; assay type: in vivo, nude (nu/nu) mice; human tumour; conditions: total 275 ug Ida
Text: Injection of 2×10^6 cells subcutaneously into the abdominal wall yielded a palpable lump within 4 days (approx. 0.1 cm^2).

[15] = test system: (L3T4^+) lymphoma EL4; assay: 30 minute inhibition assay ([^3 H]-thymidine incorporation), EL4; assay type: cell-based; conditions: 0.5 h; Table 3; EL4, 30 min; read-out: Mean I.D.50 values (Ida (M))
Experimental: as §2, with “counter. Incorporation of [^3 H]-thymidine was expressed as a percentage inhibition in incorporation of controls.” for “counter.”
as §4, with “522-529). Cells were maintained in vitro as described in Example 1.” for “522-529).”

[16] = test system: E3 and CEM cell lines
Experimental: as §2

CC(=O)[C@]1(O)Cc2c(O)c3c(c(O)c2[C@@H](O[C@H]2C[C@H](N)[C@H](O)[C@H](C)O2)C1)C(=O)c1ccccc1C3=O [Ida, 4-demethoxy-daunorubicin]
IC50 ([1]; E3, 30 min, compared with COLO 205, Example 1, read-out: dose response to free drug (I.D.50)): 9.8e-07 M
IC50 ([1]; Mus musculus, E3, incubated 30 minutes, Example 1, read-out: I.D.50 (the source's name)): 5.2e-07 M
IC50 ([1]; Mus musculus, Table 3, E3, 30 min, read-out: Mean I.D.50 values (Ida (M))): 1.8e-07 M
activity of free Ida relative to Ida-MoAb conjugates [2]: 4-10 times
anti-tumour activity / effect on tumour growth [3]: not affecting tumour growth
IC50 [4]: 6.6e-08 M
IC50 [5]: 2.2e-07 M
tumour reduction [6]: up to 50%
mice died ([6]; of 10 mice): 3
spleen histopathology ([7]; 15 days): atrophy of the white pulp in the spleen
cardiac histopathology ([7]; data not shown): some hypertrophy of cardiac muscle fibres
IC50 ([8]; Table 3, Colo 205, 24 hr, read-out: Mean I.D.50 values (Ida (M))): 8e-08 M
IC50 ([8]; target cell line COLO 205, Example 1, read-out: I.D.50 (the source's name)): 6e-08 M
IC50 ([9]; COLO 205, 30 min, Example 1, read-out: dose response to free drug (I.D.50)): 9.2e-07 M
IC50 ([9]; Table 3, Colo 205, 30 min, read-out: Mean I.D.50 values (Ida (M))): 1.2e-07 M
IC50 ([10]; Table 1, 24 hour assay, read-out: Mean I.D.50 (50% inhibition in [^3 H]-thymidine incorporation of controls)): 2.2e-07 M
IC50 ([10]; Table 3, 24 hr, read-out: Mean I.D.50 values (Ida (M))): 9e-08 M
IC50 ([11]; Table 1, E3, 24 hour assay, read-out: Mean I.D.50 (50% inhibition in [^3 H]-thymidine incorporation of controls)): 1.2e-07 M
IC50 ([11]; Table 3, E3, 24 hr, read-out: Mean I.D.50 values (Ida (M))): 7.8e-08 M
L.D.10 ([12]; Table 2, Ida (mg/kg)): 0.75 mg/kg
LD10 ([12]; mg/kg of Ida, single i.v.): 0.75 mg/kg
initial weight loss (of original weight) ([12]; single i.v. injection, all mice): up to 25%
LD50 [13]: 3 mg/kg
mice survived [14]: 2 out of 10
IC50 [15]: 1.6e-07 M
cytotoxicity of free Ida compared with conjugates [16]: more cytotoxic to both E3 and CEM than Ida-anti-Ly-2.1 and Ida-anti-TFR respectively
